Assays:
[1] = tested on: Sprague-Dawley rats, streptozotocin model; assay: Rat model of diabetic neuropathy (STZ model), paw pressure test (Example 14); type: in vivo; conditions: Compound I-1 10 mg/kg p.o., gabapentin 100 mg/kg p.o., morphine 4 mg/kg s.c., mean±s.e.m.
[2] = tested on: male Long Evans rats; assay: Novel Object Recognition (NOR) test, MK-801-induced memory disruption (Example 10); type: in vivo, rat; conditions: for Recognition Index, Mean: 0 to 3 minute time bin
Description: Objective. To assess the efficacy of compounds of the invention in reversing memory disruption induced by MK-801 using the Novel Object Recognition (NOR) test in male Long Evans rats. The NOR is a test of recognition learning and memory retrieval, which takes advantage of the spontaneous preference of rodents to investigate a novel object compared with a familiar one (Ennaceur and Delacour, 1988). […] The NOR test has been employed extensively to assess the potential cognitive-enhancing properties of novel test compounds. […] In the present study, a memory saving model was used to test the novel compound—MK-801 (Dizocilpine), an uncompetitive antagonist of the NMD A receptor was used to cause deficit of recognition memory. Compounds of the invention were evaluated through its efficacy in reversing memory impairment.
Animals. Adult male Long-Evans rats (275-299 gram at arrival from Envigo, Indianapolis, Ind.) were used in this study. Rats were placed in the experimental rooms and assigned unique identification numbers (tail marks). Rats were housed 2 per cage in polycarbonate cages with filter tops and acclimated for at least 7 days prior to testing. Animal room was maintained in a 12/12 h light/dark cycle (lights on at 07.00 EST), 22±1° C. and relative humidity at approximately 50%. Food and water were provided ad libitum. All animals were examined, handled and weighed prior to the study to assure adequate health and to minimize the non-specific stress associated with testing. Each animal was randomly assigned across the treatment groups. The experiments were conducted during the animal's light cycle phase.
MK-801 (0.1 mg/kg; Sigma-Aldrich) was dissolved in saline and injected IP 15 min prior to NOR training.
Galantamine (1 mg/kg; Tocris) was dissolved in saline and injected IP 15 minutes prior to training.
Compound I-1 (0.01, 0.1, and 1 mg/kg) was oral administrated 60 minutes prior to training. The dose volume was 4 ml/kg
Experimental procedures. NOR test was conducted in an open-field arena (40×40 cm) placed in a sound-attenuated room under dimmed lighting. Each rat was tested separately and care was taken to remove olfactory/taste cues by cleaning the arena and test objects with 70% alcohol between trials and rats. All training and testing trials were video-taped and scored by an observer blind to treatments.
On Days 1 and 2, rats were allowed to freely explore the arena (no objects inside) for a 5-minute habituation period. On Day 3 (training and testing day), rats were administered vehicle (saline), galantamine or compound solutions followed by MK-801 or vehicle (saline). After the pretreatment time, each animal was placed into the test arena in the presence of two identical objects. Each rat was placed in the arena facing the same direction at the same position, and the time spent actively exploring the objects during a 3-minute training period (T1) was recorded. The rat was returned to its home cage following training. NOR test (T2) was conducted 1 hours after T1. Each rat was placed back into the test arena in the presence of one familiar object and one novel object for 5 minutes, and the time spent exploring both objects was recorded during 0-1, 0-3 and 0-5 min time ranges. The presentation order and position of the objects (left/right) in T2 was randomized between rats to prevent bias from order or place preference.
Statistical Analysis. Data of NOR test (T2) were expressed as Recognition Index, which is defined as the ratio of the time spent exploring the novel object over the total time spent exploring both objects (Novel/(Familiar+Novel)×100%) during the test session. Data were analyzed by using one-way ANOVA followed by Fisher's LSD post hoc test on 0-1, 0-3 and 0-5 minute time range separately, with significance set at P<0.05. […] And then statistical outliers that fell above or below two standard deviations from the mean were removed from the final analysis. […]

[3] = tested on: rats; assay: Inflammatory pain: kaolin, gait score (Example 13); type: in vivo, rat; conditions: Indomethacin 30 mg/kg p.o.
Description: Kaolin. Induction: In rats, unilateral arthritis was induced by an intra-articular injection of a 10% kaolin suspension into the knee joint of the right hind paw under gas anesthesia (3.5% isoflurane/3 L/min). Gait score: The gait score will be evaluated 3 h 30 min after kaolin administration by:
2: intermittent raising of the paw

[4] = tested on: rats; assay: Inflammatory pain: carrageenan, paw pressure test (Example 13); type: in vivo, rat; conditions: Indomethacin 30 mg/kg p.o.
[5] = tested on: rats; assay: Acute and tonic pain: healthy rats, paw pressure test (Example 13); conditions: Morphine 4 mg/kg s.c.
Description: Paw Pressure Test. Static mechanical hyperalgesia is measured. This test requires the application of an increasing pressure on the hind paws between a flat surface and a blunt pointer. To evaluate the analgesic action of a compound, one hind paw of the animal was inflamed by an injection or injured by ligation, while the other hind paw was not injured or inflamed. The apparatus exerted a steadily increasing force on the hind paws. The reaction threshold was determined as the pressure (g) required to elicit paw withdrawal and/or vocalization. The animals were gently handled by the experimenter and static mechanical hyperalgesia were assessed two times for both hind paws.
(§1) Testing: 120 minutes after treatment. N=4/model/test. Results are expressed for each group as a percentage of activity calculated from the mean value of the vehicle-treated animals and compared to naïve animals, control paw, or cut-off value, depending on the test.

[6] = tested on: rats; assay: Post-operative pain: Brennan model, electronic Von Frey test (Example 13); type: in vivo, rat; conditions: Morphine 4 mg/kg s.c.
Description: Surgery: Surgery was done under gas anesthesia (2.5% isoflurane/3 L/min). For all rats, the plantar aspect of the left hind paw was exposed and a 1 cm longitudinal incision was made using a surgical blade, through the skin and fascia of the plantar aspect of the foot, starting 0.5 cm from the proximal edge of the heel and extending toward the toes. The plantaris muscle was elevated and incised longitudinally whereas the insertions remained intact. After hemostasis with gentle pressure, the skin was stitched up with two sutures. After surgery, animals recovered in their cages.
Electronic Von Frey Test: Tactile allodynia was assessed using the electronic Von Frey test 24 h after surgery. […] The apparatus exerted a steady force on the hind paws. […] Each reaction threshold measurement was repeated three times for both hind paws with intervals of approximately 2 to 3 mins.

[7] = tested on: rats; assay: Acute and tonic pain: formalin test, score (Example 13); type: in vivo, rat; conditions: Morphine 4 mg/kg s.c.
Description: Formalin Test. 2.5% formalin solution was injected by subplantar route into the right hind paw. Scoring of pain behavior was performed in rats for 36 minutes every 3 minutes according to the following scores:
0=normal behavior of the injected hind limb to support the body
1=slight touching of the injected paw on the floor to lightly support or not support the body
2=total withdrawal of the injected paw
3=licking, biting or shaking of the injected paw

[8] = tested on: rats; assay: Acute and tonic pain: healthy rats, tail flick test (Example 13); conditions: Morphine 4 mg/kg s.c.
Description: Tail Flick Test. A radiant heat was applied on the tail. When the rat felt discomfort, it reacted by a sudden tail movement (tail flick) which automatically stopped the stimulation and the timer for the measurement by the animal reaction time or nociceptive reaction latency (period from the beginning of the stimulation until detection of the response of the animal). A cut-off was previously fixed at 10 sec in order to prevent tissue damage.
as §1

[9] = D18, 60 min post administration
[10] = D18, 120 min post administration

With `NCC1(CC(=O)O)CCCCC1` [Gabapentin] as the compound, how does the “nociceptive threshold (paw pressure test)” value (“nociceptive threshold” below) [1, 9] read?
Its value is 272 ± 6.6 g.

And the “nociceptive threshold” value [1, 10]?
The value was 302 ± 17.7 g.

And the “nociceptive threshold” value ([1]; D21, 120 min after dosing)?
The value was 274 ± 19.2 g.

`COc1ccc2c3c1O[C@H]1C[C@@H](O)C=C[C@@]31CCN(C)C2` [Galantamine, reference compound] was tested. Which “Recognition Index, Mean” value ([2]; Galantamine (1 mg/kg IP) + MK-801) did it give?
Its value is 66.2%.

Which “% of activity vs. vehicle” value [3] does the source give for `COc1ccc2c(c1)c(CC(=O)O)c(C)n2C(=O)c1ccc(Cl)cc1` [Indomethacin, reference compound] here?
The value was 58%.

What about the “% of activity vs. vehicle” value [4] of the same compound?
Its value is 100%.

`C[C@]12N[C@H](Cc3ccccc31)c1ccccc12` [MK-801, MK-801 (Dizocilpine), reference compound] was tested. Which “Recognition Index, Mean” value ([2]; Vehicle + MK-801 (0.1 mg/kg IP)) did it give?
Its value is 54.1%.

And the “effect on recognition memory (Recognition Index approaching chance level, 50%)” value ([2]; MK-801 0.1 mg/kg IP, 0-1, 0-3 and 0-5 min)?
Its value is “caused a strong memory deficit”.

For `CN1CC[C@]23c4c5ccc(O)c4O[C@H]2[C@@H](O)C=C[C@H]3[C@H]1C5` [Morphine, reference compound], which “% of activity vs. vehicle” value [5] is on record?
The value was 69%.

And the “% of activity vs. vehicle” value [6]?
Its value is 88%.

What about the “nociceptive threshold” value [1, 9] of the same compound?
The value was 420 ± 35 g.

And the “nociceptive threshold” value [1, 10]?
The value was 317 ± 27.6 g.

And the “nociceptive threshold” value ([1]; D21, 120 min after dosing)?
Its value is 283 ± 16.7 g.

What about the “% of activity vs. vehicle” value ([7]; Formalin test - score (early phase)) of the same compound?
Its value is 57%.

And the “% of activity vs. vehicle” value ([7]; Formalin test - score (late phase))?
Its value is 38%.

What about the “% of activity vs. vehicle” value [8] of the same compound?
The value was 66%.
